Common to all, as to test: growth of human tumour cells (NCI), 48 h
Test [1] deals with HCT-15 colon.
Test [2] concerns MOLT-4 leukemia.
In test [3] the test system is NCI-H23 lung.
For test [4], the system named is RPMI-8226 leukemia.
Test [5] deals with RXF 393 renal.
The test system of test [6] is SF-268 CNS.
Test [7] has as its system SK-MEL-5 melanoma.
In test [8] the test system is SNB-19 CNS.
The test system of test [9] is SNB-75 CNS.
Test [10] relates to TK-10 renal.

Values joined by “and” are separate entries in the source; they are usually repeats but may differ in a detail not shown here. Equal entries are not always repeated.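 Test compounds were applied to cells in 96-well plates for 48 hours at 5 doses. GI50: concentration for 50% inhibition of growth. Definition used: TGI = concentration required for complete inhibition of growth.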 Where only a bound is given, the exact number is not on record here.

As for `CC/C=C\C[C@H](O)C/C=C1/C(=O)C(Cl)=C[C@@H]1C/C=C\CCCC(=O)OC`, the GI50 was 0.387 µM in [1]; 0.472 µM in test [2]; 0.523 µM in test [3]; 0.21 µM in test [4]; 1.09 µM in test [5]; 0.505 µM in test [6]. For the same compound, the GI50 in test [7] is 0.489 µM; in test [8] it was 0.946 µM; in test [9], 1.88 µM; in test [10], 0.946 µM. The TGI in [1] amounted to 1.67 µM; in test [2] it was 1.95 µM; in test [3], 1.97 µM; in [4], 0.88 µM; in [5] it was 3.58 µM; in test [6], 2.34 µM. Also, the TGI in test [7] is 1.77 µM; in [8], 3.31 µM; in test [9], 4.65 µM; in test [10], 3.09 µM.

With `COc1ccccc1/C=N\N/C(N)=N\N=C\c1ccccc1OC`, the GI50 in test [1] was 0.465 µM; in [2], 0.355 µM; in test [3] it was 0.618 µM; in [4], 0.281 µM; in test [5], 0.265 µM; in [6], 0.432 µM. For the same compound, the GI50 in test [7] was 0.371 µM; in test [8] it was 0.376 µM; in test [9], 0.149 µM; in test [10] it was 0.524 µM. Besides, the TGI in [1] was over 37.5 µM; in [2], 3.9 µM; in test [3], over 31.2 µM; in test [4], 0.806 µM; in [5] it was over 100 µM; in test [6] it was 26.9 µM. In addition, the TGI in test [7] was 4.14 µM; in test [8] it was 27.7 µM; in test [9], over 48.5 µM; in test [10], 8.89 µM.

Regarding `N#CN/C(N)=N/CO`, the TGI is over 56.9 µM in test [1]; over 100 µM in test [2]; over 100 µM in test [3]; over 76.2 µM in test [4]; 43.5 µM in [5]; over 100 µM in test [6]. Further, the TGI in test [7], in test [8], in test [9] and in test [10] was over 100 µM in each case.

`O=C(Nc1ccc(Nc2ccncc2)cc1)c1ccc([N+](=O)[O-])cc1`: the GI50 in test [1] is 4.95 µM; in test [2], 3.3 µM; in test [3], 10.8 µM; in test [4], 2.5 µM; in test [5] it was 3.35 µM; in test [6], 6.79 µM. In addition, the GI50 in test [7] was 4.89 µM; in test [8] it was 4.47 µM; in test [9], 4.26 µM; in [10] it was 11.2 µM. Also, the TGI is over 40.6 µM in test [1]; over 33.3 µM in [2]; over 62.6 µM in test [3]; 17 µM in test [4]; 12.4 µM in test [5]; 27.5 µM in [6]. Also, the TGI in test [7] was 21.4 µM; in [8] it was 20.7 µM; in test [9] it was 20 µM; in [10], 31.3 µM.

Turning to `CC1(C)S[C@@H]2[C@H](NC(=O)C3(N)CCCCC3)C(=O)N2[C@H]1C(=O)O`, the TGI in [1], in [2], in test [3], in test [4], in test [5] and in test [6] was over 100 µM each time. Besides, the TGI in [7], in test [8], in test [9] and in test [10] was over 100 µM throughout.

In the case of `CC(=O)CCn1ncc(Cl)c(Cl)c1=O`, the TGI in test [1] was 20.5 µM; in test [2], over 100 µM; in test [3], 32.6 µM; in test [4], over 100 µM; in test [5] it was 32.9 µM; in test [6] it was 28 µM. Besides, the TGI in test [7] was 33.5 µM; in test [8], 32.9 µM; in [9] it was 72 µM; in [10] it was over 100 µM.

As for `CCC(=O)CC(=O)CCC(=O)Nc1cc(C)ccc1C`, the TGI in [1], in test [2], in test [3], in test [4], in test [5] and in [6] was over 100 µM throughout. Besides, the TGI in test [7], in test [8], in [9] and in test [10] was over 100 µM in each case.

With `CCCCOC(=O)CNC(=O)OC/C=C/C#CC#C/C=C/COC(=O)NCC(=O)OCCCC`, the TGI in test [1] is over 10 µM; in [2] it was over 100 µM; in [3], over 100 µM; in [4], over 100 µM; in test [5], over 100 µM; in [6], over 100 µM. Also, the TGI was over 100 µM in [7]; over 100 µM in test [8]; > 10 µM and 88.8 µM in test [9]; over 100 µM in [10]. For the same compound, the GI50 in test [2], in test [3], in [4], in test [5], in test [6] and in test [7] was over 100 µM in each case. Also, the GI50 in test [8] was over 100 µM; in test [9], over 10 µM; in test [10] it was over 100 µM.

Turning to `O=C(CCN(C(=O)O)S(=O)(=O)c1ccc(NC(=O)c2ccccc2)cc1)Nc1ccccc1`, the TGI in test [1] was over 75.2 µM; in [2] it was over 85.3 µM; in test [3], over 100 µM; in [4], over 82.4 µM; in test [5] it was over 100 µM; in test [6] it was over 100 µM. For the same compound, the TGI in test [7], in [8], in test [9] and in [10] was over 100 µM in each case.

Turning to `C/C=C/C(CC(O)(C(F)(F)F)C(F)(F)F)=N/NC(N)=S`, the TGI in [1], in test [2], in test [3], in [4], in [5] and in test [6] was over 10 µM in each case. Also, the TGI in test [7], in test [8], in test [9] and in test [10] was over 10 µM throughout.

Consider `COc1cccc(C2CC(C)(O)Oc3cc4c(cc32)OCO4)c1O` (stereo not drawn), for which the TGI in [1] is over 72.5 µM; in test [2], over 94.3 µM; in [3], 92.9 µM; in test [4], over 78.2 µM; in [5] it was over 79.8 µM; in test [6] it was over 91.2 µM. In addition, the TGI in test [7] is over 61.3 µM; in test [8], over 100 µM; in [9] it was 60.2 µM; in test [10], over 100 µM.

Consider `NC(=O)/C=C/C(=O)c1c(Cl)cccc1Cl`, for which the TGI in [1] amounted to 2.3 µM; in [2], 5.46 µM; in test [3] it was 3.01 µM; in test [4] it was 1.14 µM; in [5], 1.4 µM; in test [6] it was 3.21 µM. Further, the TGI was 2.7 µM in test [7], 3.38 µM in test [8], 2.96 µM in test [9] and 2.92 µM in test [10]. The GI50 was 1.18 µM in [2]; 1.53 µM in test [3]; 0.264 µM in [4]; 0.601 µM in [5]; 1.71 µM in test [6]; 1.4 µM in test [7]. The GI50 in [8] was 1.75 µM; in [9], 1.61 µM; in test [10], 1.22 µM.

In the case of `CC(C)NC(=O)OCc1c(COC(=O)NC(C)C)c(-c2cc[n+](COC(=O)C3CC3)cc2)n2c1CCC2`, the TGI in [1], in test [2], in test [3], in test [4], in test [5] and in test [6] was over 100 µM in each case. The TGI in [7], in test [8], in [9] and in [10] was over 100 µM in each case.

In the case of `N#Cc1c(NC(=O)NCc2ccccc2)sc2c1CCCCC2`, the GI50 is 0.417 µM in test [1]; 0.456 µM in test [2]; 0.695 µM in test [3]; 0.397 µM in test [4]; 0.352 µM in test [5]; 1.52 µM in test [6]. In addition, the GI50 in [7] is 0.478 µM; in test [8], 0.588 µM; in test [9], 0.261 µM; in test [10], 5.92 µM. For the same compound, the TGI in test [1] is over 100 µM; in test [2] it was over 100 µM; in test [3], over 59.8 µM; in test [5] it was 2.38 µM; in [6], over 100 µM; in test [7], 3.6 µM. For the same compound, the TGI in test [8] was over 100 µM; in [9], 4.91 µM; in test [10], over 100 µM.

Consider `NC(=S)N/N=C(\CC1OC(=O)c2ccccc21)c1ccc(Cl)cc1` (stereo not drawn), for which the TGI in test [1] was over 100 µM; in [2] it was over 100 µM; in test [3], 57.7 µM; in test [4], over 100 µM; in test [5], 49 µM; in test [6] it was over 100 µM. Besides, the TGI in test [8], in test [9] and in [10] was over 100 µM each time.

With `[N-]=[N+]=NC1(Cc2ccccc2)C(=O)c2cccc3c2N(CCC3)C1=O` (stereo not drawn), the TGI in [1], in test [2], in test [3], in test [4], in test [5] and in test [6] was over 100 µM throughout. Besides, the TGI in test [7], in test [9] and in [10] was over 100 µM in each case.

As for `COc1ccc2occ(CCC(=O)O)c2c1`, the TGI in test [1], in test [2], in test [3], in test [4], in test [5] and in test [7] was over 100 µM throughout. The TGI in test [8], in test [9] and in test [10] was over 100 µM in each case.

Turning to `O=C1CCC(Cl)=CC2CCCN12` (stereo not drawn), the TGI in test [1], in test [2], in test [3], in test [4], in [5] and in [7] was over 100 µM each time. Further, the TGI in [8], in test [9] and in test [10] was over 100 µM in each case.

Take `CCN(CC)CCCN1CCc2c([nH]c3ccccc23)C1c1cccnc1` (stereo not drawn): the TGI in test [1], in test [2], in test [3], in [4], in [5] and in test [7] was over 100 µM throughout. The TGI in test [8], in [9] and in test [10] was over 100 µM each time.

For the compound `CC(C)(C)NNC(=O)CCn1[nH]c(=O)c(Cl)c(Cl)c1=O`, the TGI in [1], in test [2], in [3], in [4], in test [5] and in test [6] was over 100 µM each time. Besides, the TGI in test [8], in test [9] and in test [10] was over 100 µM each time.

Regarding `Cc1ccc(S(=O)(=O)N(C=O)N=C2CCN(Cc3ccccc3)CC2)cc1`, the TGI in test [1], in test [2], in test [3], in test [4], in test [5] and in test [7] was over 100 µM each time. Besides, the TGI in [8], in test [9] and in [10] was over 100 µM throughout.

`CC[As](CC)SC[C@H](C)C(=O)N1CCC[C@H]1C(=O)O`: the GI50 in [1] was 0.027 µM; in test [2], 0.016 µM; in [3], 0.222 µM; in [4] it was under 0.01 µM; in test [5], under 0.0297 µM; in test [6] it was 0.249 µM. The GI50 in test [7] was 0.054 µM; in [9] it was 0.0796 µM; in test [10], 0.113 µM. Also, the TGI in test [1] stood at 0.194 µM; in test [2] it was 0.0586 µM; in [3], 0.616 µM; in [4], 0.0112 µM; in [5], 0.475 µM; in test [6], 1 µM. Besides, the TGI is 0.151 µM in [7], 0.628 µM in [9] and 0.396 µM in [10].
